Results taken from patent publication EP1948196B1, “USE OF TETRAORGANOSILICON COMPOUNDS” (Salama, Zoser B., priority 2005, dated 2007).
Values after ≈ are worked out from the molar mass of the structure shown. Numbered stars: 1 amine (or outer) side, 2 acyl side, 3 side chain; on linkers, the order of the positions; unused ones are H or OH. Bridge positions count the residues as written; N and C are the ends. Peptide text beside a SMILES is read from it. I, II: the chains in the order shown. X2 = c1ccc([Si](O[*:1])(O[*:2])c2ccccc2)cc1

Key:
Rhino-Viren = assay: Antiviral effect; conditions: in particular as vesicles holding antisense constructs
Krebszellen = assay: Mean IC50 over all cancer cell lines; assay type: cell-based; conditions: read-out: IC50 Krebszellen (Durchschnitt ± SD)
Description: (§1) Die Silane 1, 5, 9, 10, 11, 13, 15, 16 wurden in Ethanol gelöst und in MTT Assays in einer anfänglichen Konzentration von 200 µg/ml (5 Lösungsschritte 200 - 12.5 µg/ml) verwendet. Die Platten wurde für eine Dauer.von 4 Tagen inkubiert und die Entwicklungsfähigkeit mithilfe des EZ4U Test bestimmt. Die IC50 Werte wurden ausgehend von Dosierungs-Reaktions-Linien berechnet Zelllinien: Colo 205 and HT29 - Kolonkarzinom; BxPC3 and MIAPaCa2 - Pankreaskrebs; CRO2B - karzinoid, A431 Epidermalkarzinom; normale Zellen: WI38 - humane embryonale Fibroblasten; NIH3T3 - mausartige Fibroblasten; IEC6 - mausartige Enterozyten.
(§2) Mittelwerte-IC50 für alle Krebs- oder normalen Zelllinien: […]

BxPC3 - Pankreaskrebs = assay: MTT assay / EZ4U test, 4 days; assay type: cell-based; conditions: Homo sapiens, BXPC-3, read-out: IC50 BxPC3
Description: as §1

A431 Epidermalkarzinom = assay: MTT assay / EZ4U test, 4 days; assay type: cell-based; conditions: Homo sapiens, A-431, read-out: IC50 A431
Description: as §1

CRO2B - karzinoid = assay: MTT assay / EZ4U test, 4 days; assay type: cell-based; conditions: read-out: IC50 CR02B
Description: as §1

HT29 - Kolonkarzinom = assay: MTT assay / EZ4U test, 4 days; assay type: cell-based; conditions: Homo sapiens, HT-29, read-out: IC50 HT29
Description: as §1

[1] = tested on: WI38 - humane embryonale Fibroblasten; assay: MTT assay / EZ4U test, 4 days; assay type: cell-based; conditions: Homo sapiens, WI-38, read-out: IC50 WI38
Description: as §1

[2] = tested on: IEC6 - mausartige Enterozyten; assay: MTT assay / EZ4U test, 4 days; assay type: cell-based; conditions: Rattus norvegicus, IEC-6, read-out: IC50 IEC6
Description: as §1

[3] = tested on: NIH3T3 - mausartige Fibroblasten; assay: MTT assay / EZ4U test, 4 days; assay type: cell-based; conditions: Mus musculus, NIH3T3, read-out: IC50 NIH3T3
Description: as §1

MIAPaCa2 - Pankreaskrebs = assay: MTT assay / EZ4U test, 4 days; assay type: cell-based; conditions: Homo sapiens, MIA PaCa-2, read-out: IC50 MlAPaCa2
Description: as §1

Colo 205 - Kolonkarzinom = assay: MTT assay / EZ4U test, 4 days; assay type: cell-based; conditions: Homo sapiens, COLO 205, read-out: IC50 Colo205
Description: as §1

[4] = tested on: IEC6 mausartige Enterozyten; assay: subG1 apoptotic fraction, propidium iodide, flow cytometry; assay type: cell-based; conditions: 50 µg/ml, 4 Tage
Description: (§3) Die Zellen (IEC6 mausartige Enterozyten; Panc1 Pankreaskrebszellen; Colo205 Kolonkarzinom) wurden mit 50 µg/ml Silanen inkubiert und nach 4-tägiger Aussetzung auf DNA eingefärbt (Propidiumiodid). Die SubG1 Zellteilung wurde mittels Durchflusscytometrie bestimmt.

[5] = tested on: Panc1 Pankreaskrebszellen; assay: as above; assay type: cell-based; conditions: 50 µg/ml, 4 Tage
Description: as §3

Colo205 Kolonkarzinom = assay: as above; assay type: cell-based; conditions: 50 µg/ml, 4 Tage
Description: as §3

Normale Zellen = assay: Mean IC50 over all normal cell lines; assay type: cell-based; conditions: read-out: IC50 Normale Zellen (Durchschnitt ± SD)
Description: as §1, §2

Osteosarkome = assay: Effect on osteosarcomas
[6] = tested on: BxPC3 (pankreatisches Adenokarzinom); assay: MTT test, triplicate, two-fold dilutions; assay type: cell-based; conditions: Homo sapiens, BXPC-3, read-out: IC50 BxPC3
Description: (§4) Die Silan wurden in Ethanol aufgelöst und in Zellkulturmedien in Konzentrationen von bis zu 500 µg/ml resuspendiert. Es wurden MTT Tests in dreifacher Ausführung durchgeführt, für welche doppelte Lösungen (7 Schritte) und colo205 (Kofon-Karzinom), BxPC3 (pankreatisches Adenokarzinom) sowie T47D (Brustkrebs) benutzt wurden.

colo205 (Kofon-Karzinom) = assay: MTT test, triplicate, two-fold dilutions; assay type: cell-based; conditions: Homo sapiens, COLO 205, read-out: IC50 Colo205
Description: as §4

T47D (Brustkrebs) = assay: MTT test, triplicate, two-fold dilutions; assay type: cell-based; conditions: Homo sapiens, T47D, read-out: IC50 T47D
Description: as §4

Hepatitis-Viren = assay: Antiviral effect; conditions: in particular as vesicles holding antisense constructs
Lymphome = assay: Effect on lymphomas
Adenokarzinom-Gewebe = assay: Effect against adenocarcinoma tissue, inhibition of metastasis

In the case of `CCCCCCCCCCCCCCC(=O)O[Si](OC(=O)CCCCCCCCCCCCCC)(c1ccccc1)c1ccccc1` [Si5, Di (pentadecanoyloxy) diphenylsilan], the “Wirkung gegen Rhino-Viren” value (Rhino-Viren) is reported as “zeigen eine Wirkung”, the IC50 (Krebszellen) is reported as 34 µg/mL (≈ 51.1 µM) and the IC50 (BxPC3 - Pankreaskrebs) is reported as 25 µg/mL (≈ 37.6 µM). The IC50 (A431 Epidermalkarzinom) was 36.3 µg/mL (≈ 54.6 µM), the IC50 (CRO2B - karzinoid) was 35 µg/mL (≈ 52.6 µM) and the IC50 (HT29 - Kolonkarzinom) was 40 µg/mL (≈ 60.1 µM). The IC50 [1] was 36.5 µg/mL (≈ 54.9 µM), the IC50 [2] was 32.5 µg/mL (≈ 48.9 µM) and the IC50 [3] was 55 µg/mL (≈ 82.7 µM). The IC50 (MIAPaCa2 - Pankreaskrebs) was 38.5 µg/mL (≈ 57.9 µM), the IC50 (Colo 205 - Kolonkarzinom) was 43.8 µg/mL (≈ 65.9 µM) and the “subG1 apoptotische Zellteilung IEC6” value [4] was 6,35 ± 0,63. The “subG1 apoptotische Zellteilung Panc1” value [5] was 52,8 ± 3,4, the “subG1 apoptotische Zellteilung Colo205” value (Colo205 Kolonkarzinom) was 3,4 ± 0,28 and the IC50 (Normale Zellen) was 41.3 µg/mL (≈ 62.1 µM). The “Wirkung auf Osteosarkome” value (Osteosarkome) was “zeigen eine Wirkung”, the IC50 [6] was 60 µg/mL (≈ 90.2 µM) and the IC50 (colo205 (Kofon-Karzinom)) was 70 µg/mL (≈ 105 µM). The IC50 (T47D (Brustkrebs)) was 20 µg/mL (≈ 30.1 µM).
`C[C@H](N)C(=O)N[C@@H](C)C(=O)N[C@@H](C)C(=O)N[C@@H](C)C(=O)N[C@@H](C)C(=O)O[Si](OC(=O)[C@H](C)NC(=O)[C@H](C)NC(=O)[C@H](C)NC(=O)[C@H](C)NC(=O)[C@H](C)N)(c1ccccc1)c1ccccc1` [Diphenyl bis(pentaalanyl)silylester] was tested, and the “Wirkung gegen Hepatitis-Viren” value (Hepatitis-Viren) was “zeigen eine Wirkung” and the “Wirkung auf Lymphome” value (Lymphome) was “zeigen eine Wirkung”.
For `CCCCCCCCCCCC(=O)O[Si](OC(=O)CCCCCCCCCCC)(C(C)C)C(C)C` [Di(dodecanoyloxy)diisopropylsilan], the “Wirkung gegen Adenokarzinom-Gewebe, insbesondere inhibierende Wirkung auf die Metastasierung” value (Adenokarzinom-Gewebe) was “haben eine Wirkung”.
`C[C@H](N)C(=O)N[C@@H](C)C(=O)N[C@@H](C)C(=O)N[C@@H](C)C(=O)N[C@@H](C)C(=O)N[C@@H](C)C(=O)N[C@@H](C)C(=O)N[C@@H](C)C(=O)N[C@@H](C)C(=O)O[Si](OC(=O)[C@H](C)NC(=O)[C@H](C)NC(=O)[C@H](C)NC(=O)[C@H](C)NC(=O)[C@H](C)NC(=O)[C@H](C)NC(=O)[C@H](C)NC(=O)[C@H](C)NC(=O)[C@H](C)N)(c1ccccc1)c1ccccc1` [Diphenyl bis(nonaalanyl)silylester] (I: H-AAAAAAAAA / II: H-AAAAAAAAA; linker I:C-II:C via X2) was tested, and the “Wirkung gegen Hepatitis-Viren” value (Hepatitis-Viren) was “zeigen eine Wirkung” and the “Wirkung auf Lymphome” value (Lymphome) was “zeigen eine Wirkung”.
For `CCCCCCCCCCCCCC(=O)O[Si](OC(=O)CCCCCCCCCCCCC)(C(C)C)C(C)C` [Di(tetradecanoyloxy)diisopropylsilan], the “Wirkung gegen Adenokarzinom-Gewebe, insbesondere inhibierende Wirkung auf die Metastasierung” value (Adenokarzinom-Gewebe) was “haben eine Wirkung”.
With `CCCCCCCCCCCCCCC(=O)O[Si](OC(=O)CCCCCCCCCCCCCC)(C(C)C)C(C)C` [Di(pentadecanoyloxydiisopropylsilan] the “Wirkung gegen Adenokarzinom-Gewebe, insbesondere inhibierende Wirkung auf die Metastasierung” value (Adenokarzinom-Gewebe) was “haben eine Wirkung”.
